Reference: ChEMBL document CHEMBL3867472, “Discovery of benzofuran propanoic acid GPR120 agonists: From uHTS hit to mechanism-based pharmacodynamic effects” (Bioorg Med Chem Lett, 2016)

What was measured:
[1] = target: T1, Free fatty acid receptor 4 (Mus musculus, UniProt Q7TMA4); test: Agonist activity at mouse GPR120 expressed in CHOK1 cells measured after 60 mins by IP1-HTRF assay; type: functional, cell-based, CHO-K1
T1 sequence (Q7TMA4 whole entry): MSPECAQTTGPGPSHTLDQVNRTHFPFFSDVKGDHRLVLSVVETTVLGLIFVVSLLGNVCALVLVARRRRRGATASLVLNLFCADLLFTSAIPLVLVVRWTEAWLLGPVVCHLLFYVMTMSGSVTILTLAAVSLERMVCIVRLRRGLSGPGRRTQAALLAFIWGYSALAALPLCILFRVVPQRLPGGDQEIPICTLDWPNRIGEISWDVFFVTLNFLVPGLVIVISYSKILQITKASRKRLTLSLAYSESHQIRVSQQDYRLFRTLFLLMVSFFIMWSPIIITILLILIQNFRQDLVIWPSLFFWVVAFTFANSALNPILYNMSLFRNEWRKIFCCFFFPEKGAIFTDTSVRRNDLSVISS

[2] = target: T2, Free fatty acid receptor 4 (Homo sapiens, UniProt Q5NUL3); test: Agonist activity at human GPR120 expressed in CHOK1 cells measured after 60 mins by IP1-HTRF assay; type: functional, cell-based, CHO-K1
T2 sequence (Q5NUL3 whole entry): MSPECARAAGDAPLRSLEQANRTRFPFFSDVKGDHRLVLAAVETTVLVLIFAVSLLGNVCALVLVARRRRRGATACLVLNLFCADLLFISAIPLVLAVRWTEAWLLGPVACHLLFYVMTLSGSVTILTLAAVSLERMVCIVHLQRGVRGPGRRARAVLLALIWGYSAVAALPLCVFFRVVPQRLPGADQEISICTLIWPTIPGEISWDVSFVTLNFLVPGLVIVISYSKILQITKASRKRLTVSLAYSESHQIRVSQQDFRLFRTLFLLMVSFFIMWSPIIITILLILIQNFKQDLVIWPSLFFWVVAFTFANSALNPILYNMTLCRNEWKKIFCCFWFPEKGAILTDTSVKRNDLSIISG

[3] = target: T3, Free fatty acid receptor 1 (Homo sapiens, UniProt O14842); test: Agonist activity at human GPR40 measured after 60 mins by IP1-HTRF assay; type: functional
[4] = target: T4, Free fatty acid receptor 4 (Mus musculus) (UniProt Q7TMA4); test: Agonist activity at mouse GPR120 expressed in CHOK1 cells measured after 60 mins by IP1-HTRF assay relative to basal level; type: functional, cell-based; set-up: concentration or dose not given beside the values; conditions: CHO-K1
T4 sequence (whole entry): T1 sequence (Q7TMA4 whole entry)

[5] = target: T5, Free fatty acid receptor 4 (Homo sapiens) (UniProt Q5NUL3); test: Agonist activity at human GPR120 expressed in CHOK1 cells measured after 60 mins by IP1-HTRF assay relative to basal level; type: functional, cell-based; set-up: concentration or dose not given beside the values; conditions: CHO-K1
T5 sequence (whole entry): T2 sequence (Q5NUL3 whole entry)

Cytochrome P450 3A4 = Cytochrome P450 3A4 (Homo sapiens, UniProt P08684); test: Inhibition of CYP3A4 (unknown origin); type: ADME
[6] = Volume of distribution in mouse at 2 mg/kg, iv or 10 mg/kg, po; type: ADME, organism-based; conditions: in vivo
Cytochrome P450 2D6 = Cytochrome P450 2D6 (Homo sapiens, UniProt P10635); test: Inhibition of CYP2D6 (unknown origin); type: ADME
[7] = Cmax in mouse at 2 mg/kg, iv or 10 mg/kg, po; type: ADME, organism-based; conditions: in vivo
Cytochrome P450 2C9 = Cytochrome P450 2C9 (Homo sapiens, UniProt P11712); test: Inhibition of CYP2C9 (unknown origin); type: ADME
[8] = Half life in mouse at 2 mg/kg, iv or 10 mg/kg, po; type: ADME, organism-based; conditions: in vivo
[9] = Oral bioavailability in mouse at 10 mg/kg; type: ADME, organism-based; conditions: in vivo
[10] = Protein binding in mouse plasma; type: ADME, cell-free; conditions: read-out: PPB (converted)
[11] = target: Voltage-dependent L-type calcium channel subunit alpha-1C (Homo sapiens, UniProt Q13936); test: Inhibition of Cav1.2 (unknown origin)
[12] = target: Sodium channel protein type 5 subunit alpha (Homo sapiens, UniProt Q14524); test: Inhibition of Nav1.5 (unknown origin)
[13] = Clearance in mouse at 2 mg/kg, iv or 10 mg/kg, po; type: ADME, organism-based; conditions: in vivo
[14] = target: T3, Free fatty acid receptor 1; test: Agonist activity at human GPR40 measured after 60 mins by IP1-HTRF assay relative to basal level; type: functional; set-up: concentration or dose not given beside the values

T3 sequence (O14842 whole entry): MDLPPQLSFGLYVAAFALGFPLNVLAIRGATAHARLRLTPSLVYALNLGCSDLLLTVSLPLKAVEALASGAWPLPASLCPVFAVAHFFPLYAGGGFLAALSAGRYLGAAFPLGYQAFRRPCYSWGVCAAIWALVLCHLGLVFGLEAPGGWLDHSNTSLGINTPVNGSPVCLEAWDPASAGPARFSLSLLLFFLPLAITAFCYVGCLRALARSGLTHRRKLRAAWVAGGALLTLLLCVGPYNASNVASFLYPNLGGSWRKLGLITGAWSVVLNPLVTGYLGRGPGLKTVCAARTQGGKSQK
Chain of Cytochrome P450 3A4 (P08684 whole entry): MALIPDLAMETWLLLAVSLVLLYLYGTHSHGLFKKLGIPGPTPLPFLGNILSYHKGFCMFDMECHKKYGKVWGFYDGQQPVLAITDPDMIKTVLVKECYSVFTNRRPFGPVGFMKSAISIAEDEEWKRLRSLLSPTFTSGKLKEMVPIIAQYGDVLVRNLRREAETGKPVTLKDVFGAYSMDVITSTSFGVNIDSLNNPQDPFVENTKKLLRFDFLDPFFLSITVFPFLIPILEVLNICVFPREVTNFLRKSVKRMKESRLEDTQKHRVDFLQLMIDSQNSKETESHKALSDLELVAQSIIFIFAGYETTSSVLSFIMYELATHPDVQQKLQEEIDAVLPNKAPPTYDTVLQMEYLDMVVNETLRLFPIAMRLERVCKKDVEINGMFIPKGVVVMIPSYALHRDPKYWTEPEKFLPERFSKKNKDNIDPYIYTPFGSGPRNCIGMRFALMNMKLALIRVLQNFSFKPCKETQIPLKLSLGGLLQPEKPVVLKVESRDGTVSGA
Chain of Cytochrome P450 2D6 (P10635 whole entry): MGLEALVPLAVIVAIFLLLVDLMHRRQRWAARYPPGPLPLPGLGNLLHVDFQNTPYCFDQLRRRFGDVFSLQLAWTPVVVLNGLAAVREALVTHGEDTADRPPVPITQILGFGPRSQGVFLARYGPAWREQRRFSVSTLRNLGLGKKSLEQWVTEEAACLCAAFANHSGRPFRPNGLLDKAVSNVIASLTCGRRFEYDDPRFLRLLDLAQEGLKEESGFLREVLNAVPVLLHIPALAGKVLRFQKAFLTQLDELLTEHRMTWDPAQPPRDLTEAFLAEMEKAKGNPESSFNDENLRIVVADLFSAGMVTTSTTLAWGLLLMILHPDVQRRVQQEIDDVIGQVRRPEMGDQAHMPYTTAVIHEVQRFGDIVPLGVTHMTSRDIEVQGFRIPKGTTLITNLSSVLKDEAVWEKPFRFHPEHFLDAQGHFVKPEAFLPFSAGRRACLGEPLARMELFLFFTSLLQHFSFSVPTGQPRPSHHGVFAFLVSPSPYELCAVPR
Chain of Voltage-dependent L-type calcium channel subunit alpha-1C (Q13936 whole entry): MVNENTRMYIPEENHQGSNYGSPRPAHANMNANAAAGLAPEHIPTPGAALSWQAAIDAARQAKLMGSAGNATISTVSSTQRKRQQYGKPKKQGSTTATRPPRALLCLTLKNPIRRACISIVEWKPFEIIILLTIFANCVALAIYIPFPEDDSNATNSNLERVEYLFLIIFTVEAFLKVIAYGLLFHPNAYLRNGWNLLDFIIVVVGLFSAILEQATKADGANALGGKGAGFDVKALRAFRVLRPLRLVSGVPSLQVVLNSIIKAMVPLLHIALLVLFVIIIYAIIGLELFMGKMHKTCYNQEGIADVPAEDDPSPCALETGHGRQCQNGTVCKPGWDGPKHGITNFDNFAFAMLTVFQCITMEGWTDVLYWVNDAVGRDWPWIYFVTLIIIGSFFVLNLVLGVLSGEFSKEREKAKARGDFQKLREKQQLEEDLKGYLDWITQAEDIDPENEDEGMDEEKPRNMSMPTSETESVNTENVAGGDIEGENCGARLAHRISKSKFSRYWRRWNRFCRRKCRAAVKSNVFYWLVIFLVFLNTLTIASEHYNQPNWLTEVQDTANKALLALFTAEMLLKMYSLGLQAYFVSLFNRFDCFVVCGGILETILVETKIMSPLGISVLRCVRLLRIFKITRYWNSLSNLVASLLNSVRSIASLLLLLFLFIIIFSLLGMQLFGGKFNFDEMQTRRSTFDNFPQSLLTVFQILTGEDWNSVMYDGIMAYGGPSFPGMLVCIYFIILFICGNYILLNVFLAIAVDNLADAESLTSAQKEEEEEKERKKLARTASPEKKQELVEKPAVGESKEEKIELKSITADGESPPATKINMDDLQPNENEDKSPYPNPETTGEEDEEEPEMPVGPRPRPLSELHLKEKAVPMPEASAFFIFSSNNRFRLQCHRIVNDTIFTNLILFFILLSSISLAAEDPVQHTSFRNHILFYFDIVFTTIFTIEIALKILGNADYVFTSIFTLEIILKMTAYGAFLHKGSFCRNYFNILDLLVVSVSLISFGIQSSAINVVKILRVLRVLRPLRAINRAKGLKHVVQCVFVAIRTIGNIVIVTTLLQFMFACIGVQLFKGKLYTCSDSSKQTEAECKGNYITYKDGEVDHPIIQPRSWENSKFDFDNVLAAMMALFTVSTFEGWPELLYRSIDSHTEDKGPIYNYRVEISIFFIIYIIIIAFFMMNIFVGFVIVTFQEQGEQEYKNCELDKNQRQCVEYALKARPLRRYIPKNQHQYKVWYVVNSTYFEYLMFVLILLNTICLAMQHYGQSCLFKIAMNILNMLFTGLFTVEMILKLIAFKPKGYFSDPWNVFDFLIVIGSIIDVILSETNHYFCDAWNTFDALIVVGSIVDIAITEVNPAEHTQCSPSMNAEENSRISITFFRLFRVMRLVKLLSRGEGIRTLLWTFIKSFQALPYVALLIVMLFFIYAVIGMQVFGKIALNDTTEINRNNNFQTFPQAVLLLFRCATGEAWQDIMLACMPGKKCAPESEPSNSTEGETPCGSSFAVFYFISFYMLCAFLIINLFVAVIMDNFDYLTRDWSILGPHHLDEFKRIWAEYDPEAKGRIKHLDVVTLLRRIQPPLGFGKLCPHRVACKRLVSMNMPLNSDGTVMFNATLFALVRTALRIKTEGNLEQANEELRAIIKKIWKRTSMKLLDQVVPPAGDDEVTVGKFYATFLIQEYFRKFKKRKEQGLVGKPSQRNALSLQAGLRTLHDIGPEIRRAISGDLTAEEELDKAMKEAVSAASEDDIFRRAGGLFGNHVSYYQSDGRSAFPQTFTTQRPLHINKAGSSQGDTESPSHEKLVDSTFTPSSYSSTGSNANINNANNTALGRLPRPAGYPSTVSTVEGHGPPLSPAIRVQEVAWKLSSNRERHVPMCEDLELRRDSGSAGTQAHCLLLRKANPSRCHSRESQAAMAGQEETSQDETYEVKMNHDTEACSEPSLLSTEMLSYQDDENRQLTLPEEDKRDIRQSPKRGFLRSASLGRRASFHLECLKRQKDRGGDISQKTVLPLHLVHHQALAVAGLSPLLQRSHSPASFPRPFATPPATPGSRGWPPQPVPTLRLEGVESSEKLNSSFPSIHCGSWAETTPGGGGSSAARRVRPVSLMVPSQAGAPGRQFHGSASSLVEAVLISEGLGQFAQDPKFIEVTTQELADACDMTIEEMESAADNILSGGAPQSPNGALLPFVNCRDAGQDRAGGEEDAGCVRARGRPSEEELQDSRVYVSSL
Chain of Cytochrome P450 2C9 (P11712 whole entry): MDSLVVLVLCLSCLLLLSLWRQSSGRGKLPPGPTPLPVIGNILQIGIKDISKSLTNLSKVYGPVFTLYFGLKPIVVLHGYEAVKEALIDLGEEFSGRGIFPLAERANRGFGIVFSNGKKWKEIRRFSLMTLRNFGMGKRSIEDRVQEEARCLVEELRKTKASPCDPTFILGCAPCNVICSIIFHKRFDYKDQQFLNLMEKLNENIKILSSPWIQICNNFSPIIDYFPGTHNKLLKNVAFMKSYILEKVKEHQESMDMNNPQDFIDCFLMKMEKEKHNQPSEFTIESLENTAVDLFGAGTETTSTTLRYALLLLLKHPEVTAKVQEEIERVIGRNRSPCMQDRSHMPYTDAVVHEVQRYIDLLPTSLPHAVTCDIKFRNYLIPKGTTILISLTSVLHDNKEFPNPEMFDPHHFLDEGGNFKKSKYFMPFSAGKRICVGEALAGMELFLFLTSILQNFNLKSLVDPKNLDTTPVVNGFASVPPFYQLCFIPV

Row | Structure (SMILES) | EC50 [1] [nM] | EC50 [2] [nM] | EC50 [3] [nM] | Activity [4] [%] | Activity [5] [%] | Activity [14] [%] | also measured
1 | O=C(O)c1cc2cc(-c3cc(OC(F)(F)F)ccc3F)ccc2o1 | > 9950 | > 9950 | > 9950 | – | – | – | –
2 | Fc1ccc(OC(F)(F)F)cc1-c1ccc2oc(CCc3nn[nH]n3)cc2c1 | 316 | > 9950 | > 9950 | 28 | – | – | –
3 | O=C(O)CCCOc1ccc(-c2cc(Oc3cccnc3)ccc2Cl)cc1 | 34 | 88 | > 9950 | 77 | 58 | – | –
4 | O=C(O)CCc1cc2cc(-c3cc(Cl)cc(OC4CCC4)c3)ccc2o1 | 64 | 188 | > 9950 | 55 | 50 | – | –
5 | O=C(O)CCCOc1ccc(-c2cc(OC(F)(F)F)ccc2Cl)c(F)c1 | 36 | 186 | > 9950 | 66 | 60 | – | –
6 | Cc1cc(-c2cc(OC(F)(F)F)ccc2Cl)cc(C)c1OCCCC(=O)O | 16 | 94 | > 9950 | 73 | 61 | – | IC50 (Cytochrome P450 3A4): 3280 nM; Vd [6]: 0.95 L/kg; IC50 (Cytochrome P450 2D6): > 50000 nM; Cmax [7]: 6.1 µM; IC50 (Cytochrome P450 2C9): > 50000 nM; half-life [8]: 5.5 h; bioavailability [9]: 41%; fraction unbound [10]: 0.002; IC50 [11]: 12800 nM; IC50 [12]: 9130 nM; clearance [13]: 4.9 mL/min/kg
7 | O=C(O)CCCOc1c(F)cc(-c2cc(OC(F)(F)F)ccc2F)cc1F | 7 | 20 | 5410 | 75 | 69 | 46 | –
8 | Cc1cc(-c2cc(OC(F)(F)F)ccc2F)ccc1OCCCC(=O)O | 79 | 308 | 9260 | 37 | 52 | 34 | –
9 | O=C(O)CCc1cc2cc(-c3cccc(OC4CCC4)c3)ccc2o1 | 35 | 153 | 2500 | 66 | 65 | 40 | –
10 | O=C(O)CCc1cc2cc(-c3cccc(OC(F)(F)F)c3)ccc2o1 | 326 | 544 | 1390 | 59 | 48 | 43 | –
11 | O=C(O)CCCOc1ccc(-c2ccccc2Oc2ccccc2)cc1 | 418 | 546 | > 9950 | 21 | 25 | – | –
12 | O=C(O)CCc1cc2cc(-c3cc(C(=O)C4CC4)ccc3F)ccc2o1 | 22 | 97 | > 9950 | 75 | 92 | – | –
13 | Cc1cc(OCCCC(=O)O)ccc1-c1cc(OC(F)(F)F)ccc1Cl | 78 | 254 | > 9950 | 29 | 32 | – | –
14 | Cc1cc(-c2cc(OC(F)(F)F)ccc2Cl)ccc1OCCCC(=O)O | 131 | 185 | 6720 | 62 | 57 | 37 | –
15 | CCOc1ccc(Cl)c(-c2ccc(OCCCC(=O)O)cc2)c1 | 32 | 121 | 1130 | 65 | 66 | 30 | –
16 | O=C(O)CCCOc1ccc(-c2cc(OC3CC3)ccc2F)cc1 | 32 | 66 | > 9950 | 61 | 68 | – | –
17 | O=C(O)CCc1cc2cc(-c3cc(OC(F)(F)F)ccc3Cl)ccc2o1 | 12 | 102 | > 9950 | 76 | 69 | – | –
18 | O=C(O)CCCOc1ccc(-c2cccc(Oc3ccccc3)c2)cc1 | 67 | 170 | 6800 | 58 | 46 | 54 | –

Row | Structure (SMILES) | EC50 [1] [nM] | EC50 [2] [nM] | EC50 [3] [nM] | Activity [4] [%] | Activity [5] [%] | Activity [14] [%] | also measured
19 | O=C(O)CCCOc1ccc(-c2cc(OC(F)(F)F)ccc2F)cc1 | 432 | 946 | 4220 | 34 | 16 | 91 | –
20 | O=C(O)CCC1Cc2cc(-c3cc(OC(F)(F)F)ccc3F)ccc2O1 (stereo in doubt; 44) [listing 1 of 2 here] | 31 | 77 | 1370 | – | – | – | –
21 | O=C(O)CCCOc1ccc(-c2cc(Oc3cccc(F)c3)ccc2Cl)cc1 | 34 | 198 | 3350 | 70 | 80 | 67 | –
22 | Cc1ccc(Oc2cccc(-c3ccc(OCCCC(=O)O)cc3)c2)cc1 | 66 | 182 | > 9950 | 83 | 77 | – | –
23 | COc1cccc(Oc2cccc(-c3ccc(OCCCC(=O)O)cc3)c2)c1 | 264 | 498 | 6310 | 20 | 19 | 101 | –
24 | O=C(O)CCCOc1ccc(-c2cccc(OCc3ccccc3)c2)cc1 | > 9950 | > 9950 | > 9950 | – | – | – | –
25 | O=C(O)CCCOc1ccc(-c2cc(Oc3cccc(F)c3)ccc2F)cc1 | 27 | 60 | 9460 | 98 | 107 | 110 | –
26 | Cc1cc(-c2cc(OC(F)(F)F)ccc2F)cc(C)c1OCCCC(=O)O | 47 | 149 | > 9950 | 86 | 87 | – | –
27 | O=C(O)CCC1Cc2cc(-c3cc(OC(F)(F)F)ccc3F)ccc2O1 (stereo in doubt; 45) [listing 1 of 2 here] | – | – | – | 65 | 49 | 91 | –
28 | O=C(O)CCCOc1ccc(-c2cc(Oc3ccccc3)ccc2F)cc1 | 29 | 100 | 3590 | 80 | 71 | 91 | –
29 | CC(Cc1cc2cc(-c3cc(OC(F)(F)F)ccc3F)ccc2o1)C(=O)O (racemic) | 70 | 83 | > 9950 | 44 | 10 | – | –
30 | O=C(O)CCC1Cc2cc(-c3cc(OC(F)(F)F)ccc3F)ccc2O1 (stereo in doubt; 44) [listing 2 of 2 here] | – | – | – | 68 | 101 | 24 | –
31 | O=C(O)CCCOc1ccc(-c2ccccc2OC(F)(F)F)cc1 | 1870 | 3000 | > 9950 | 20 | 19 | – | –
32 | O=C(O)CCC1Cc2cc(-c3cc(OC(F)(F)F)ccc3F)ccc2O1 (stereo in doubt; 45) [listing 2 of 2 here] | 106 | 137 | 1350 | – | – | – | –
33 | Cc1cc(OC2CCC2)cc(-c2ccc3oc(CCC(=O)O)cc3c2)c1 | 28 | 68 | 2960 | 69 | 51 | 51 | –
34 | O=C(O)CCCOc1ccc(-c2ccccc2C(F)(F)F)cc1 | 2190 | 8170 | > 9950 | 15 | 31 | – | –
35 | CCOc1ccc(F)c(-c2ccc(OCCCC(=O)O)cc2)c1 | 140 | 290 | 3190 | 58 | 71 | 22 | –
36 | CC(CC(=O)O)c1cc2cc(-c3cc(OC(F)(F)F)ccc3F)ccc2o1 (racemic) | 74 | 819 | > 9950 | 57 | 24 | – | –
